Assay results published in patent US20260022098A1, “BULLEYACONITINE A DERIVATIVE WITH ANALGESIC ACTIVITY, AND PREPARATION METHOD AND APPLICATION THEREOF” (priority 2023, published 2026).

What was measured:
Kunming mice [1] = assay: Analgesic activity by acetic acid-induced writhing method (writhing inhibition rate, ED50); format: in vivo; settings: Mus musculus, sc, read-out: Analgesia rate (%) ± SEM
Method: (§1) The experimental animals were Kunming mice (male:female=1:1), weighed 22+2 g, which were provided by Chengdu dossy experimental animals Co., ltd., China. The mice were kept in the animal room of the School of Life Science and Engineering, Southwest Jiaotong University, where the animal room was set at a temperature of 23±2° C., a humidity of […] and a photoperiod of 16:8 h (L:D). Before the experiment, the mice were freely fed for 2-3 days with water and feed to adapt to the new environment. Then, the mice were treated by water and food fasting for 12 h. 10 animals were allocated to each group to ensure that there are at least 6 sets of valid data in each group. The animal experiments were carried out in strict accordance with the national regulations on the management of experimental animals.
(§2) The compounds prepared in the examples provided herein (test sample set) and bulleyaconitine A (positive control set) were all dissolved with 0.1 mol/L HCl according to a molar ratio of 1:1, and then diluted with physiological saline to a concentration to be determined. Blank control was physiological saline containing 0.1 mol/L HCl. The animals in the control groups were subjected to the same treatment as those in experimental groups except that samples to be test were replaced with physiological saline.
(1) Determination of Analgesic Activity Through an Acetic Acid-Induced Writhing Method
10 mice were randomly selected, male:female=1:1, were placed in independent cages. Each mouse was injected subcutaneously with the sample solution mentioned above at a dose of 0.1 mL/10 g body weight. After 15 min, a 0.7% acetic acid solution was intraperitoneally injected. A number of writhing reactions in each mouse within 15 minutes was recorded. The group that the mice were injected with physiological saline subcutaneously was the blank group; the group that the mice were injected with the sample to be tested was the experimental group; and the group that the mice were injected with bulleyaconitine A was the positive group. The analgesic activity was represented by a percentage of the reduced number of writhing compared to the blank group (writhing inhibition rate), which were specifically as follows: writhing inhibition rate (analgesic activity)=(average number of writhing times in the blank group-average number of writhing times in the experimental group)/average number of writhing times in the blank group×100%.
Median Effective Dose (ED50) Determination
The sample to be tested was dissolved with 0.1 mol/L HCl according to the amount of the substance ratio of 1:1, and diluted with physiological saline according to the proportional series to obtain at least 5 groups with different dose concentrations. The writhing inhibition rate of each dose group was tested according to the acetic acid-induced writhing method mentioned above. The obtained dose-writhing inhibition data was entered into the statistical product and service solutions (SPSS) software (version 17.2), and the ED50 of the sample to be tested was calculated through the Probit regression method.

Kunming mice [2] = assay: Acute toxicity / median lethal dose (LD50) determination, subcutaneous injection; format: in vivo; design: key to Acute toxicity: if death occurred, (+) represented as positive; if no death occurred, (−) represented as negative; settings: mice administered 20 mg/kg subcutaneously, presence of death within 24 h
Method: as §1, §2
(2) Median Lethal Dose (LD50) Determination
The sample to be tested was dissolved with 0.1 mol/L HCl according to the amount of the substance ratio of 1:1, and diluted with physiological saline according to the required concentration. 10 mice in each group were randomly selected, half of which were male and half of which were female, and were placed in independent cages. Each mouse was injected subcutaneously with different sample solutions to be tested according to a dose of 0.1 mL/10 g body weight. In the preliminary toxicity experiment, the measured concentration was 20 mg/kg, and then based on the survival rate of the experimental animals in the preliminary experiment, the sample to be tested was set to at least 5 groups with different concentration dose according to the proportional series. The survival rate of mice within 24 h was recorded. The obtained dose-survival rate data was input into the SPSS software (version 17.2), and the LD50 of the sample was calculated according to the Probit regression method.

Row | Compound | inhibition in vivo at 0.05 mg/kg (Kunming mice [1]) | Acute toxicity (Kunming mice [2])
1 | CCO[C@]12C[C@H](OC)[C@@]3(OC(=O)c4ccc(CC)cc4)CC(C1[C@H]3OC(=O)c1ccc(CC)cc1)[C@]13C4[C@@H](OC)C2[C@H]1N(CC)C[C@]4(COC)CC[C@@H]3OC (some centres unmarked) [Compound 63] | 0% | −
2 | CCO[C@]12C[C@H](OC)[C@@]3(OC(=O)C(C)C)CC(C1[C@H]3OC(=O)C(C)C)[C@]13C4[C@@H](OC)C2[C@H]1N(CC)C[C@]4(COC)CC[C@@H]3OC (some centres unmarked) [Compound 80] | 19.1 ± 2.1% | −
3 | CCO[C@]12C[C@H](OC)[C@@]3(OC(=O)c4cccc(OC)c4)CC(C1[C@H]3OC(=O)c1cccc(OC)c1)[C@]13C4[C@@H](OC)C2[C@H]1N(CC)C[C@]4(COC)CC[C@@H]3OC (some centres unmarked) [Compound 76] | 0% | −
4 | CCO[C@]12C[C@H](OC)[C@@]3(OC(=O)c4ccc(C)cc4)CC(C1[C@H]3OC(=O)c1ccc(C)cc1)[C@]13C4[C@@H](OC)C2[C@H]1N(CC)C[C@]4(COC)CC[C@@H]3OC (some centres unmarked) [Compound 56] | 11.4 ± 2% | −
5 | CCN1C[C@]2(COC)CC[C@H](OC)[C@@]34C5C[C@]6(OC(=O)c7ccco7)[C@@H](OC)C[C@@](OC)(C5[C@H]6OC(=O)c5ccc(OC)cc5)C([C@H](OC)C23)[C@@H]14 (some centres unmarked) [Compound 33] | 30.2 ± 2.6% | −
6 | CCN1C[C@]2(COC)CC[C@H](OC)[C@@]34C5C[C@]6(OC(=O)c7ccc(C)cc7)[C@@H](OC)C[C@@](OC(C)=O)(C5[C@H]6OC(=O)c5ccc(OC)cc5)C([C@H](OC)C23)[C@@H]14 (some centres unmarked) [Compound 58] | 28.8 ± 1.8% | −
7 | CCN1C[C@]2(COC)CC[C@H](OC)[C@@]34C5C[C@]6(O)[C@@H](OC)C[C@@](OC)(C5[C@H]6OC(=O)c5ccc(OC)cc5)C([C@H](OC)C23)[C@@H]14 (some centres unmarked) [Compound 1] | 25.5 ± 2.9% | +
8 | CCO[C@]12C[C@H](OC)[C@@]3(OC(=O)c4ccccc4OC)CC(C1[C@H]3OC(=O)c1ccccc1OC)[C@]13C4[C@@H](OC)C2[C@H]1N(CC)C[C@]4(COC)CC[C@@H]3OC (some centres unmarked) [Compound 66] | 22.9 ± 2.4% | −
9 | CCN1C[C@]2(COC)CC[C@H](OC)[C@@]34C5C[C@]6(OC(=O)c7ccc(Cl)s7)[C@@H](OC)C[C@@](OC(C)=O)(C5[C@H]6OC(=O)c5ccc(OC)cc5)C([C@H](OC)C23)[C@@H]14 (some centres unmarked) [Compound 22] | 6.27 ± 2.3% | −
10 | CCO[C@]12C[C@H](OC)[C@@]3(O)CC(C1[C@H]3O)[C@]13C4[C@@H](OC)C2[C@H]1N(CC)C[C@]4(COC)CC[C@@H]3OC (some centres unmarked) [Compound 4] | 5.63 ± 1.1% | −
11 | CCO[C@]12C[C@H](OC)[C@@]3(OC(=O)c4cc([N+](=O)[O-])cc([N+](=O)[O-])c4)CC(C1[C@H]3OC(=O)c1cc([N+](=O)[O-])cc([N+](=O)[O-])c1)[C@]13C4[C@@H](OC)C2[C@H]1N(CC)C[C@]4(COC)CC[C@@H]3OC (some centres unmarked) [Compound 96] | 30.1 ± 1.3% | −
12 | CCN1C[C@]2(COC)CC[C@H](OC)[C@@]34C5C[C@]6(OC(=O)c7ccncc7)[C@@H](OC)C[C@@](OC(C)=O)(C5[C@H]6OC(=O)c5ccc(OC)cc5)C([C@H](OC)C23)[C@@H]14 (some centres unmarked) [Compound 51] | 32.6 ± 1.7% | −
13 | CCO[C@]12C[C@H](OC)[C@@]3(OC(=O)c4ccccc4Br)CC(C1[C@H]3OC(=O)c1ccccc1Br)[C@]13C4[C@@H](OC)C2[C@H]1N(CC)C[C@]4(COC)CC[C@@H]3OC (some centres unmarked) [Compound 67] | 17.8 ± 1.9% | −
14 | CCN1C[C@]2(COC)CC[C@H](OC)[C@@]34C5C[C@]6(OC(=O)c7cccs7)[C@@H](OC)C[C@@](OC(C)=O)(C5[C@H]6OC(=O)c5ccc(OC)cc5)C([C@H](OC)C23)[C@@H]14 (some centres unmarked) [Compound 21] | 0% | −
15 | CCO[C@]12C[C@H](OC)[C@@]3(OC(=O)c4ccc(Cl)s4)CC(C1[C@H]3OC(=O)c1ccc(Cl)s1)[C@]13C4[C@@H](OC)C2[C@H]1N(CC)C[C@]4(COC)CC[C@@H]3OC (some centres unmarked) [Compound 18] | 13.4 ± 0.6% | −
16 | CCO[C@]12C[C@H](OC)[C@@]3(OC(=O)c4ccc(Cl)cc4)CC(C1[C@H]3OC(=O)c1ccc(Cl)cc1)[C@]13C4[C@@H](OC)C2[C@H]1N(CC)C[C@]4(COC)CC[C@@H]3OC (some centres unmarked) [Compound 65] | 32.3 ± 1.7% | −
17 | CCO[C@]12C[C@H](OC)[C@@]3(OC(=O)c4cccs4)CC(C1[C@H]3OC(=O)c1ccc(OC)cc1)[C@]13C4[C@@H](OC)C2[C@H]1N(CC)C[C@]4(COC)CC[C@@H]3OC (some centres unmarked) [Compound 19] | 7.13 ± 2.8% | −
18 | CCN1C[C@]2(COC)CC[C@H](OC)[C@@]34C5C[C@]6(OC(C)=O)[C@@H](OC)C[C@@](OC(C)=O)(C5[C@H]6OC(=O)c5ccc(OC)cc5)C([C@H](OC)C23)[C@@H]14 (some centres unmarked) [Compound 43] | 4.92 ± 1.5% | −
19 | CCCC(=O)O[C@]12CC3C([C@H]1OC(=O)c1ccc(OC)cc1)[C@](OCC)(C[C@@H]2OC)C1[C@H](OC)C2[C@@]4(COC)CC[C@H](OC)[C@@]32[C@@H]1N(CC)C4 (some centres unmarked) [Compound 78] | 31.7 ± 1.4% | −
20 | CCN1C[C@]2(COC)CC[C@H](OC)[C@@]34C5C[C@]6(OC(=O)C7CCOCC7)[C@@H](OC)C[C@@](OC)(C5[C@H]6OC(=O)C5CCOCC5)C([C@H](OC)C23)[C@@H]14 (some centres unmarked) [Compound 26] | 30.5 ± 1% | −
21 | CCN1C[C@]2(COC)CC[C@H](OC)[C@@]34C5C[C@]6(OC(C)=O)[C@@H](OC)C[C@@](OC)(C5[C@H]6OC(=O)c5ccc(OC)cc5)C([C@H](OC)C23)[C@@H]14 (some centres unmarked) [Compound 45] | 21.6 ± 1.3% | −
22 | CCO[C@]12C[C@H](OC)[C@@]3(OC(=O)c4cccc(C#N)c4)CC(C1[C@H]3OC(=O)c1cccc(C#N)c1)[C@]13C4[C@@H](OC)C2[C@H]1N(CC)C[C@]4(COC)CC[C@@H]3OC (some centres unmarked) [Compound 95] | 23.8 ± 1.1% | −
23 | CCN1C[C@]2(COC)CC[C@H](OC)[C@@]34C5C[C@]6(OC(=O)c7ccc(C(F)(F)F)cc7)[C@@H](OC)C[C@@](OC(C)=O)(C5[C@H]6OC(=O)c5ccc(OC)cc5)C([C@H](OC)C23)[C@@H]14 (some centres unmarked) [Compound 48] | 17.5 ± 3% | −
24 | CCO[C@]12C[C@H](OC)[C@@]3(OC(=O)C4CC4)CC(C1[C@H]3OC(=O)C1CC1)[C@]13C4[C@@H](OC)C2[C@H]1N(CC)C[C@]4(COC)CC[C@@H]3OC (some centres unmarked) [Compound 8] | 37.1 ± 1.2% | −
25 | CCO[C@]12C[C@H](OC)[C@@]3(OC(C)=O)CC(C1[C@H]3OC(=O)c1ccc(OC)cc1)[C@]13C4[C@@H](OC)C2[C@H]1N(CC)C[C@]4(COC)CC[C@@H]3OC (some centres unmarked) [Compound 42] | 23 ± 1.7% | −
26 | CCO[C@]12C[C@H](OC)[C@@]3(OC(=O)c4cccc(C)c4)CC(C1[C@H]3OC(=O)c1cccc(C)c1)[C@]13C4[C@@H](OC)C2[C@H]1N(CC)C[C@]4(COC)CC[C@@H]3OC (some centres unmarked) [Compound 62] | 15 ± 2.4% | −
27 | CCN1C[C@]2(COC)CC[C@H](OC)[C@@]34C5C[C@]6(OC(=O)c7ccc([N+](=O)[O-])cc7)[C@@H](OC)C[C@@](OC(C)=O)(C5[C@H]6OC(=O)c5ccc(OC)cc5)C([C@H](OC)C23)[C@@H]14 (some centres unmarked) [Compound 40] | 31.9 ± 1.8% | −
28 | CCO[C@]12C[C@H](OC)[C@@]3(OC(=O)c4ccccc4C)CC(C1[C@H]3OC(=O)c1ccccc1C)[C@]13C4[C@@H](OC)C2[C@H]1N(CC)C[C@]4(COC)CC[C@@H]3OC (some centres unmarked) [Compound 75] | 10.8 ± 2.2% | −
